Assay results from PubChem BioAssay AID256 (DTP/NCI, 2004).
Inconclusive results and toxic doses are left out.

System: CD2F1 mice, L1210 leukemia ip, survival T/C
Test: NCI In Vivo Anticancer Drug Screen. Data for tumor model L1210 Leukemia (intraperitoneal) in CD2F1 (CDF1) mice
Conditions: higher = longer survival
Method in brief: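 Implant tumor; dose compound or vehicle; measure endpoint in both groups; report treated divided by control.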

[1] = endpoint: mean survival time, dose: 5.0 mg/kg/injection, schedule: Q01DX009 (ip), vehicle: saline
[2] = endpoint: mean survival time, dose: 100.0 mg/kg/injection, schedule: Q01DX001 (ip), vehicle: saline
[3] = endpoint: mean survival time, dose: 200.0 mg/kg/injection, schedule: Q01DX001 (ip), vehicle: saline
[4] = endpoint: mean survival time, dose: 400.0 mg/kg/injection, schedule: Q01DX001 (ip), vehicle: saline
[5] = endpoint: mean survival time, dose: 100.0 mg/kg/injection, schedule: Q04DX003 (ip), vehicle: saline with Tween-80
[6] = endpoint: mean survival time, dose: 200.0 mg/kg/injection, schedule: Q04DX003 (ip), vehicle: saline with Tween-80
[7] = endpoint: mean survival time, dose: 400.0 mg/kg/injection, schedule: Q04DX003 (ip), vehicle: saline with Tween-80
[8] = endpoint: mean survival time, dose: 25.0 mg/kg/injection, schedule: Q04DX003 (ip), vehicle: saline
[9] = endpoint: mean survival time, dose: 50.0 mg/kg/injection, schedule: Q04DX003 (ip), vehicle: saline
[10] = endpoint: mean survival time, dose: 100.0 mg/kg/injection, schedule: Q04DX003 (ip), vehicle: saline
[11] = endpoint: mean survival time, dose: 100.0 mg/kg/injection, schedule: Q04DX002 (ip), vehicle: Klucel (hydroxypropylcellulose) (HPC)
[12] = endpoint: mean survival time, dose: 200.0 mg/kg/injection, schedule: Q04DX002 (ip), vehicle: Klucel (hydroxypropylcellulose) (HPC)
[13] = endpoint: mean survival time, dose: 100.0 mg/kg/injection, schedule: Q01DX009 (ip), vehicle: saline with Tween-80
[14] = endpoint: mean survival time, dose: 200.0 mg/kg/injection, schedule: Q01DX009 (ip), vehicle: saline with Tween-80
[15] = endpoint: mean survival time, dose: 400.0 mg/kg/injection, schedule: Q01DX009 (ip), vehicle: saline with Tween-80

CN(C)C1CCCCC1[N+](C)(C)C (configuration not stated)
T/C [1]: 101 % of control
T/C (endpoint: mean survival time, dose: 5.0 mg/kg/injection, schedule: Q04DX003 (ip), vehicle: saline): 104 % of control
T/C (endpoint: mean survival time, dose: 10.0 mg/kg/injection, schedule: Q01DX009 (ip), vehicle: saline): 107 % of control
T/C (endpoint: mean survival time, dose: 10.0 mg/kg/injection, schedule: Q04DX003 (ip), vehicle: saline): 101 % of control
T/C (endpoint: mean survival time, dose: 20.0 mg/kg/injection, schedule: Q01DX009 (ip), vehicle: saline): 104 % of control
T/C (endpoint: mean survival time, dose: 20.0 mg/kg/injection, schedule: Q04DX003 (ip), vehicle: saline): 98 % of control

CCCCOc1c(OCCCC)c(=O)c1=O
T/C [2]: 108 % of control
T/C (endpoint: mean survival time, dose: 178.0 mg/kg/injection, schedule: Q01DX001 (ip), vehicle: saline): 102 % of control
T/C [3]: 108 % of control
T/C (endpoint: mean survival time, dose: 267.0 mg/kg/injection, schedule: Q01DX001 (ip), vehicle: saline): 96 % of control
T/C [4]: 106 % of control
T/C (endpoint: mean survival time, dose: 600.0 mg/kg/injection, schedule: Q01DX001 (ip), vehicle: saline): 98 % of control

O=C(CCN1CC1)Nc1ccc(NC(=O)CCN2CC2)cc1
T/C (endpoint: mean survival time, dose: 5.0 mg/kg/injection, schedule: Q04DX003 (ip), vehicle: Klucel (hydroxypropylcellulose) (HPC)): 106 % of control
T/C (endpoint: mean survival time, dose: 80.0 mg/kg/injection, schedule: Q04DX003 (ip), vehicle: Klucel (hydroxypropylcellulose) (HPC)): 115 % of control

Clc1ccc(N=Cc2ccc3c(c2)OCO3)c(Cl)c1
T/C (endpoint: mean survival time, dose: 100.0 mg/kg/injection, schedule: Q01DX001 (ip), vehicle: Klucel (hydroxypropylcellulose) (HPC)): 100 % of control
T/C (endpoint: mean survival time, dose: 200.0 mg/kg/injection, schedule: Q01DX001 (ip), vehicle: Klucel (hydroxypropylcellulose) (HPC)): 96 % of control
T/C (endpoint: mean survival time, dose: 400.0 mg/kg/injection, schedule: Q01DX001 (ip), vehicle: Klucel (hydroxypropylcellulose) (HPC)): 97 % of control

NC(=S)NC(=O)c1ccccc1
T/C [5]: 94 % of control
T/C [6]: 94 % of control
T/C [7]: 94 % of control

Cc1nc(-c2ccccc2)c(Cc2c(O)ccc3ccccc23)c(=O)[nH]1
T/C [2]: 97 % of control
T/C [3]: 100 % of control
T/C [4]: 100 % of control

N=C(N)SC(c1ccccc1)c1ccccc1
T/C [8]: 100 % of control
T/C [9]: 94 % of control
T/C [10]: 102 % of control

O=C1OC2(c3ccc(Cl)cc3Oc3cc(Cl)ccc32)c2ccccc21
T/C [11]: 101 % of control
T/C [12]: 97 % of control
T/C (endpoint: mean survival time, dose: 400.0 mg/kg/injection, schedule: Q04DX002 (ip), vehicle: Klucel (hydroxypropylcellulose) (HPC)): 89 % of control

NCC(S)c1ccc(Cl)cc1 (configuration not stated)
T/C (endpoint: mean survival time, dose: 12.5 mg/kg/injection, schedule: Q04DX003 (ip), vehicle: saline): 98 % of control
T/C [8]: 93 % of control
T/C [9]: 96 % of control

CC(=O)Oc1ccc2c(c1)C(=O)CCC=C2
T/C (endpoint: mean survival time, dose: 12.5 mg/kg/injection, schedule: Q01DX009 (ip), vehicle: other): 103 % of control
T/C (endpoint: mean survival time, dose: 25.0 mg/kg/injection, schedule: Q01DX009 (ip), vehicle: other): 106 % of control
T/C (endpoint: mean survival time, dose: 50.0 mg/kg/injection, schedule: Q01DX009 (ip), vehicle: other): 108 % of control

CCCCNC(C)[C@]1(O)Cc2c(O)c3c(c(O)c2[C@@H](OC2CC(N)C(O)C(C)O2)C1)C(=O)c1c(OC)cccc1C3=O (some centres not stated)
T/C (endpoint: mean survival time, dose: 0.15 mg/kg/injection, schedule: Q01DX009 (ip), vehicle: water): 106 % of control
T/C (endpoint: mean survival time, dose: 0.31 mg/kg/injection, schedule: Q01DX009 (ip), vehicle: water): 114 % of control
T/C (endpoint: mean survival time, dose: 0.62 mg/kg/injection, schedule: Q01DX009 (ip), vehicle: water): 111 % of control
T/C (endpoint: mean survival time, dose: 1.25 mg/kg/injection, schedule: Q01DX009 (ip), vehicle: water): 112 % of control
T/C (endpoint: mean survival time, dose: 2.5 mg/kg/injection, schedule: Q01DX009 (ip), vehicle: water): 122 % of control
T/C (endpoint: mean survival time, dose: 5.0 mg/kg/injection, schedule: Q01DX009 (ip), vehicle: water): 118 % of control
T/C (endpoint: mean survival time, dose: 10.0 mg/kg/injection, schedule: Q01DX009 (ip), vehicle: water): 88 % of control

Cc1ccc2c(c1)Sc1ccc3ccccc3c1N2
T/C [13]: 95 % of control
T/C (endpoint: mean survival time, dose: 100.0 mg/kg/injection, schedule: Q04DX003 (ip), vehicle: Klucel (hydroxypropylcellulose) (HPC)): 96 % of control
T/C [14]: 97 % of control
T/C (endpoint: mean survival time, dose: 200.0 mg/kg/injection, schedule: Q04DX003 (ip), vehicle: Klucel (hydroxypropylcellulose) (HPC)): 95 % of control
T/C [15]: 97 % of control
T/C (endpoint: mean survival time, dose: 400.0 mg/kg/injection, schedule: Q04DX003 (ip), vehicle: Klucel (hydroxypropylcellulose) (HPC)): 98 % of control

CCC1(CCC#N)CCC(N)=CC1=O (configuration not stated)
T/C [5]: 104 % of control
T/C [6]: 95 % of control
T/C [7]: 101 % of control

O=S(=O)(Cl)c1ccc(F)cc1
T/C [2]: 106 % of control
T/C [10]: 101 % of control
T/C [3]: 109 % of control
T/C (endpoint: mean survival time, dose: 200.0 mg/kg/injection, schedule: Q04DX003 (ip), vehicle: saline): 102 % of control
T/C [4]: 103 % of control
T/C (endpoint: mean survival time, dose: 400.0 mg/kg/injection, schedule: Q04DX003 (ip), vehicle: saline): 98 % of control

O=[N+]([O-])c1ccc(S(=O)(=O)OCc2ccccc2OS(=O)(=O)c2ccc([N+](=O)[O-])cc2)cc1
T/C (endpoint: mean survival time, dose: 25.0 mg/kg/injection, schedule: Q04DX003 (ip), vehicle: saline with Tween-80): 109 % of control
T/C (endpoint: mean survival time, dose: 50.0 mg/kg/injection, schedule: Q04DX003 (ip), vehicle: saline with Tween-80): 106 % of control
T/C [5]: 93 % of control

O=C(Nc1nccs1)C(F)(F)F
T/C (endpoint: median survival time, dose: 50.0 mg/kg/injection, schedule: Q01DX009 (ip), vehicle: saline): 100 % of control
T/C (endpoint: median survival time, dose: 100.0 mg/kg/injection, schedule: Q01DX009 (ip), vehicle: saline): 108 % of control
T/C (endpoint: median survival time, dose: 200.0 mg/kg/injection, schedule: Q01DX009 (ip), vehicle: saline): 108 % of control
T/C (endpoint: median survival time, dose: 400.0 mg/kg/injection, schedule: Q01DX009 (ip), vehicle: saline): 109 % of control

Cn1c(N)c(C2OC(=O)c3ccccc32)c(=O)n(C)c1=O (configuration not stated)
T/C [11]: 98 % of control
T/C [12]: 98 % of control

CCOC(=O)c1c(C)c2c(n1C)CC/C(=C\N1CCCCC1)C2=O
T/C (endpoint: mean survival time, dose: 100.0 mg/kg/injection, schedule: Q04DX002 (ip), vehicle: saline with Tween-80): 111 % of control
T/C (endpoint: mean survival time, dose: 200.0 mg/kg/injection, schedule: Q04DX002 (ip), vehicle: saline with Tween-80): 118 % of control
T/C (endpoint: mean survival time, dose: 400.0 mg/kg/injection, schedule: Q04DX002 (ip), vehicle: saline with Tween-80): 96 % of control

CCCCOC(=O)CNC(=O)c1ccc(C)c(OCc2ccccc2)c1[N+](=O)[O-]
T/C (endpoint: mean survival time, dose: 75.0 mg/kg/injection, schedule: Q01DX001 (ip), vehicle: steriod suspending solution): 100 % of control
T/C (endpoint: mean survival time, dose: 150.0 mg/kg/injection, schedule: Q01DX001 (ip), vehicle: steriod suspending solution): 100 % of control
T/C (endpoint: mean survival time, dose: 300.0 mg/kg/injection, schedule: Q01DX001 (ip), vehicle: steriod suspending solution): 100 % of control

COc1cccc(C(=O)O)c1OC
T/C [13]: 109 % of control
T/C [14]: 94 % of control
T/C [15]: 102 % of control

CCCCCC(=O)/C=C/Sc1n[nH]c(=O)[nH]c1=O
T/C (endpoint: mean survival time, dose: 12.5 mg/kg/injection, schedule: Q01DX005 (ip), vehicle: distilled water + Tween-80): 96 % of control
T/C (endpoint: mean survival time, dose: 25.0 mg/kg/injection, schedule: Q01DX005 (ip), vehicle: distilled water + Tween-80): 100 % of control
T/C (endpoint: mean survival time, dose: 50.0 mg/kg/injection, schedule: Q01DX005 (ip), vehicle: distilled water + Tween-80): 104 % of control

O=NN(CCCl)C(=O)NC1OC(CO)C(O)C(O)C1O (configuration not stated)
T/C (endpoint: mean survival time, dose: 2.5 mg/kg/injection, schedule: Q01DX009 (ip), vehicle: saline): 215 % of control
T/C [1]: 176 % of control
T/C (endpoint: mean survival time, dose: 10.0 mg/kg/injection, schedule: Q04DX002 (ip), vehicle: saline): 243 % of control
T/C (endpoint: mean survival time, dose: 20.0 mg/kg/injection, schedule: Q04DX002 (ip), vehicle: saline): 121 % of control
T/C (endpoint: median survival time, dose: 1.8 mg/kg/injection, schedule: Q01DX009 (ip), vehicle: saline): 175 % of control
T/C (endpoint: median survival time, dose: 3.0 mg/kg/injection, schedule: Q01DX009 (ip), vehicle: saline): 175 % of control
T/C (endpoint: median survival time, dose: 13.89 mg/kg/injection, schedule: Q01DX009 (ip), vehicle: saline): 96 % of control

COc1ccc(CNCCCC2C3CCC(C3)C2CN)cc1 (configuration not stated)
T/C [5]: 95 % of control
T/C [6]: 95 % of control
